Read-outs that look alike come from different tables or passages of the source.
Experiments:
MDMX = target: T1, MDMX (Homo sapiens, UniProt O15151); experiment: fluorescence polarization assay, MDMX binding
T1 sequence (O15151 1-490): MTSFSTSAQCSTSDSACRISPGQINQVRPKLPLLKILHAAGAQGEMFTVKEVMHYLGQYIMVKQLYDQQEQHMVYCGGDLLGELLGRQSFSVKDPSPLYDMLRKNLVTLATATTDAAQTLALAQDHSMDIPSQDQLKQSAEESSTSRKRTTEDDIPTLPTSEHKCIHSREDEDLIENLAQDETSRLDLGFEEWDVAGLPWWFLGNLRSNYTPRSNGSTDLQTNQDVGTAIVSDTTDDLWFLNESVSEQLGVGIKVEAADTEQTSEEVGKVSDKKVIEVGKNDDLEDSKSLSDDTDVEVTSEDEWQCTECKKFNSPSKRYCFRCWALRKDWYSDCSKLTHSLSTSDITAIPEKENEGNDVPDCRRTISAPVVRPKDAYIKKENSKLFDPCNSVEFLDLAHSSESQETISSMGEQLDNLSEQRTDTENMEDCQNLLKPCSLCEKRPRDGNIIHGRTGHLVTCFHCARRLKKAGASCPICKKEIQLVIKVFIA

MDM2 = MDM2 (Homo sapiens, UniProt Q00987); experiment: fluorescence polarization assay, MDM2 binding
Sequence of MDM2 (Q00987 whole entry): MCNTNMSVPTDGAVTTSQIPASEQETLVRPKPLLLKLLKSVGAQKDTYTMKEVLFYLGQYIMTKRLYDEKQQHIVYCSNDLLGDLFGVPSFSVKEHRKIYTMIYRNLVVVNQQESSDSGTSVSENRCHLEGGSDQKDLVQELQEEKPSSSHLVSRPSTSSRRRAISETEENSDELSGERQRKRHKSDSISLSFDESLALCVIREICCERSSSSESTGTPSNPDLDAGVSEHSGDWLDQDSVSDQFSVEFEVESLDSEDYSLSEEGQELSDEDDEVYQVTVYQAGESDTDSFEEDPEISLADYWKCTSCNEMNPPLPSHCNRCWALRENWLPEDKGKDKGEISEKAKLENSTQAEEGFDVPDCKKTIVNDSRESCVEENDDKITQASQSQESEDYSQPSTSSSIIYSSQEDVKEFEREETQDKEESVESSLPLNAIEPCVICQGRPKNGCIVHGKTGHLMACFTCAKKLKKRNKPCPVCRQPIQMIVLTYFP

[1] = read-out: Ki (μM) ± SD MDMX, fluorescence polarization, PMDM-F peptide, pH 7.5
[2] = read-out: Ki (μM) ± SD MDM2, fluorescence polarization, PMDM-F peptide, pH 7.5

melting point [°C]	Ki (MDMX) [µM]	Ki (MDM2) [µM]	Ki (MDMX; [1]) [µM]	Ki (MDM2; [2]) [µM]	Structure (SMILES)
138.2 to 139.9	> 50	4.39 ± 0.82			O=C1/C(=C/c2ccccc2Cl)c2ccccc2N1S(=O)(=O)c1ccccc1 [Compound A1, (E)-3-(2-chlorobenzylidene)-1-(phenylsulfonyl)indolin-2-one]
	> 50	7.23 ± 1.03			Cc1ccccc1S(=O)(=O)N1C(=O)/C(=C/c2ccccc2Cl)c2ccccc21 [Compound A2, (E)-3-(2-chlorobenzylidene)-1-(o-tolylsulfonyl)indolin-2-one]
	> 50	5.58 ± 0.99			Cc1cccc(S(=O)(=O)N2C(=O)/C(=C/c3ccccc3Cl)c3ccccc32)c1 [Compound A3, (E)-3-(2-chlorobenzylidene)-1-(m-tolylsulfonyl)indolin-2-one]
148.9 to 150.5	> 50	10.2 ± 1.45			Cc1ccc(S(=O)(=O)N2C(=O)/C(=C/c3ccccc3Cl)c3ccccc32)cc1 [Compound A4, (E)-3-(2-chlorobenzylidene)-1-tosylindolin-2-one]
157.2 to 158.1	42.1 ± 6.35	3.43 ± 0.57			O=C1/C(=C/c2ccccc2Cl)c2ccccc2N1S(=O)(=O)c1ccccc1Cl [Compound A5, (E)-3-(2-chlorobenzylidene)-1-((2-chlorophenyl)sulfonyl)indolin-2-one]
172.4 to 173.1	20.4 ± 2.62	1.53 ± 0.19			O=C1/C(=C/c2ccccc2Cl)c2ccccc2N1S(=O)(=O)c1ccc(Cl)cc1 [Compound A7, (E)-3-(2-chlorobenzylidene)-1-((4-chlorophenyl)sulfonyl)indolin-2-one]
115.1 to 117.3	10.3 ± 1.45	1.47 ± 0.15			O=C1/C(=C/c2cccc(Cl)c2)c2ccccc2N1S(=O)(=O)c1ccccc1 [Compound A8, (E)-3-(3-chlorobenzylidene)-1-(phenylsulfonyl)indolin-2-one]
140.9 to 143.2			> 50	6.95 ± 0.97	Cc1ccccc1S(=O)(=O)N1C(=O)/C(=C/c2cccc(Cl)c2)c2ccccc21 [Compound A9, (E)-3-(3-chlorobenzylidene)-1-(o-tolylsulfonyl)indolin-2-one]
147.4 to 149.2			> 50	5.36 ± 1.06	Cc1cccc(S(=O)(=O)N2C(=O)/C(=C/c3cccc(Cl)c3)c3ccccc32)c1 [Compound A10, (E)-3-(3-chlorobenzylidene)-1-(m-tolylsulfonyl)indolin-2-one]
136.3 to 138.1	> 50	5.19 ± 1.25			Cc1ccc(S(=O)(=O)N2C(=O)/C(=C/c3cccc(Cl)c3)c3ccccc32)cc1 [Compound A11, (E)-3-(3-chlorobenzylidene)-1-tosylindolin-2-one]
195.3 to 197	13.6 ± 1.47	1.39 ± 0.21			O=C1/C(=C/c2cccc(Cl)c2)c2ccccc2N1S(=O)(=O)c1cccc([N+](=O)[O-])c1 [Compound A22, (E)-3-(3-chlorobenzylidene)-1-((3-nitrophenyl)sulfonyl)indolin-2-one]
175.1 to 176.7	42.2 ± 4.73	3.77 ± 0.45			COc1ccc(S(=O)(=O)N2C(=O)/C(=C/c3cccc(Cl)c3)c3ccccc32)cc1 [Compound A23, (E)-3-(3-chlorobenzylidene)-1-((4-methoxyphenyl)sulfonyl)indolin-2-one]
155.2 to 157.1			34.7 ± 4.02	3.17 ± 0.37	Cc1ccccc1S(=O)(=O)N1C(=O)/C(=C/c2ccc(Cl)cc2)c2ccccc21 [Compound A24, (E)-3-(4-chlorobenzylidene)-1-(o-tolylsulfonyl)indolin-2-one]
			> 50	4.93 ± 0.47	Cc1cccc(S(=O)(=O)N2C(=O)/C(=C/c3ccc(Cl)cc3)c3ccccc32)c1 [Compound A25, (E)-3-(4-chlorobenzylidene)-1-(m-tolylsulfonyl)indolin-2-one]
134.1 to 135.6			> 50	4.68 ± 0.39	Cc1ccc(S(=O)(=O)N2C(=O)/C(=C/c3ccc(Cl)cc3)c3ccccc32)cc1 [Compound A26, (E)-3-(4-chlorobenzylidene)-1-tosylindolin-2-one]
	37.4 ± 3.57	2.18 ± 0.29			O=C1/C(=C/c2ccc(Cl)cc2)c2ccccc2N1S(=O)(=O)c1ccccc1 [Compound A28, (E)-3-(4-chlorobenzylidene)-1-(phenylsulfonyl)indolin-2-one]
132.6 to 133.8			29 ± 2.18	1.39 ± 0.15	O=C1/C(=C/c2cccc(Cl)c2)c2ccc(Cl)cc2N1S(=O)(=O)c1cccc(Cl)c1 [Compound A30, (E)-6-chloro-3-(3-chlorobenzylidene)-1-((3-chlorophenyl)sulfonyl)indolin-2-one]
214.5 to 216.2	> 50	10.2 ± 2.01			O=C1/C(=C/c2ccccc2Cl)c2ccccc2N1C(=O)c1ccccc1Cl [Compound B1, (E)-1-(2-chlorobenzoyl)-3-(2-chlorobenzylidene)indolin-2-one]
219 to 220.8	> 50	8.43 ± 1.58			O=C1/C(=C/c2ccccc2Cl)c2ccccc2N1C(=O)c1cccc(Cl)c1 [Compound B2, (E)-1-(3-chlorobenzoyl)-3-(2-chlorobenzylidene)indolin-2-one]
221.3 to 222.7	> 50	7.86 ± 1.34			O=C1/C(=C/c2ccccc2Cl)c2ccccc2N1C(=O)c1ccc(Cl)cc1 [Compound B3, (E)-1-(4-chlorobenzoyl)-3-(2-chlorobenzylidene)indolin-2-one]
111.2 to 112.8	> 50	16.4 ± 2.77			Cc1ccccc1C(=O)N1C(=O)/C(=C/c2ccccc2Cl)c2ccccc21 [Compound B4, (E)-3-(2-chlorobenzylidene)-1-(2-methylbenzoyl)indolin-2-one]
128.2 to 129.7	> 50	20.2 ± 3.05			Cc1cccc(C(=O)N2C(=O)/C(=C/c3ccccc3Cl)c3ccccc32)c1 [Compound B5, (E)-3-(2-chlorobenzylidene)-1-(3-methylbenzoyl)indolin-2-one]
145.3 to 146.9	> 50	22.4 ± 3.64			Cc1ccc(C(=O)N2C(=O)/C(=C/c3ccccc3Cl)c3ccccc32)cc1 [Compound B6, (E)-3-(2-chlorobenzylidene)-1-(4-methylbenzoyl)indolin-2-one]
108.3 to 109.7	> 50	14.9 ± 2.37			O=C1/C(=C/c2cccc(Cl)c2)c2ccccc2N1C(=O)c1ccccc1Cl [Compound B7, (E)-1-(2-chlorobenzoyl)-3-(3-chlorobenzylidene)indolin-2-one]
112.4 to 114	> 50	8.63 ± 1.55			O=C1/C(=C/c2cccc(Cl)c2)c2ccccc2N1C(=O)c1cccc(Cl)c1 [Compound B8, (E)-1-(3-chlorobenzoyl)-3-(3-chlorobenzylidene)indolin-2-one]
103.5 to 104.8	> 50	15.9 ± 1.96			O=C1/C(=C/c2cccc(Cl)c2)c2ccccc2N1C(=O)c1ccc(Cl)cc1 [Compound B9, (E)-1-(4-chlorobenzoyl)-3-(3-chlorobenzylidene)indolin-2-one]
